Test results from PMC9911168, “Cytotoxic and pro-apoptotic effects of botanical drugs derived from the indigenous cultivated medicinal plant Paris polyphylla var. yunnanensis” (Frontiers in Pharmacology, 2023).
Like-named read-outs stand apart in the source and are kept apart here.

What was measured:
Format in all cases: cell-based, human
A549 cells [1] = test: Mitochondrial membrane potential (JC-10), A549; conditions: A549, 2 μM, 24 h
Method: (§1) The probe 5,6-dichloro-1,1′,3,3′- tetraethyl-imidacarbocyanine iodide (JC-10) was used as a measure of mitochondrial membrane potential ([Hirose et al., 1974]; [Chaudhari et al., 2008]). The effects of each of the six isolated saponins on mitochondrial membrane potential were determined using a JC-10 assay kit (×200, 10 μL/tube, five tubes), which was purchased from Beijing Solarbio Science & Technology Co., Ltd. (Beijing, China). Cells were cultured in a confocal dish with this method. After 12–24 h of inoculation and culture at 37°C, the purified saponins were added at the indicated concentrations. The cells were incubated at 37°C in a humidified atmosphere with 5% (v/v) CO2 for 24 h. The culture medium was removed, and the confocal dishes were washed twice with 1 mL PBS, followed by 0.5 mL incubation buffer containing 2.5 μL JC-10 (×200) at 37°C for 20 min in the dark. After incubation, the supernatant was removed, and the cells were washed twice with 1 mL JC-10 buffer and PBS. […] The wavelengths for excitation were 490 nm (green fluorescence) and 525 nm (red fluorescence). The wavelengths for emission were in the range of 495–565 nm (monomers for JC-10) and 550–620 nm (polymer for JC-10).

SMMC-7721 cells [2] = test: Mitochondrial membrane potential (JC-10), SMMC-7721; conditions: SMMC-7721, 2 μM, 24 h
Method: as §1

HepG2 cells [3] = test: Mitochondrial membrane potential (JC-10), HepG2; conditions: HepG2, 2 μM, 24 h
Method: as §1

SMMC-7721 = test: MTS cell viability assay, SMMC-7721; conditions: read-out: IC50 (±SD) SMMC-7721
Method: (§2) The effects of the extracts and isolated saponins on cell growth were evaluated by the MTS assay (3-(4,5-dimethylthiazol-2-yl)-5(3-carboxymethoxyphenyl)-2-(4-sulfopheny)-2H-tetrazolium; Promega, Madison, WI, United States) on human tumor cell lines ([Mosmann, 1983]; [Cory et al., 1991]; [Malich et al., 1997]). In a test experiment of cell inhibition, the cell inhibition effects of six crude extracts (100 μg/mL) and six isolated saponins (40 μM) were roughly measured to ascertain whether to measure the IC50 value by MTS assay.
(§3) Each well of a 96-well plate (Multiskan Fc, Therm) was seeded with 100 μL cells at a density of 3,000–5,000 cells per well, with the cell suspension containing 10% (v/v) fetal bovine serum (DMEM or RMPI1640, Biological Industries, Kibbutz Beit-Haemek, Israel). After 12–24 h of inoculation and culture at 37°C, the extracts or saponins were added at the indicated concentrations after being dissolved in dimethyl sulfoxide (DMSO, Biological Industries, Kibbutz Beit-Haemek, Israel) in a final volume of 200 μL per well, each in triplicate. The six crude extracts were added at concentrations of 100, 20, 4, 0.8, and 0.16 μg/mL; the six isolated saponins were added at concentrations of 10, 5, 2.5, 1.25, 0.625, and 0.3125 μM. After culture for 48 h at 37°C, 20 μL of MTS solution and 100 μL of DMEM were added to each well; three blank wells were set aside with 20 μL MTS solution and 100 μL DMEM. After an incubation for another 2–4 h, the absorbance at 492 nm was measured. Cisplatin and Paclitaxel (MeilunBio) were used as a positive control in each experiment. The cell growth curve was drawn with the concentration as the abscissa and the cell survival rate as the ordinate. The IC50 value of each saponin was calculated by the two-point method ([Reed and Muench, 1938]).

HepG2 = test: MTS cell viability assay, HepG2; conditions: read-out: IC50 (±SD) HepG2
Method: as §2, §3

SK-HEP-1 = test: MTS cell viability assay, SK-HEP-1; conditions: read-out: IC50 (±SD) SK-HEP-1
Method: as §2, §3

A549 = test: MTS cell viability assay, A549; conditions: read-out: IC50 (±SD) A549
Method: as §2, §3

LO2 = test: MTS cell viability assay, normal liver cell LO2
Method: (§4) Three human liver cancer cell lines (SMMC-7721, HepG2, and SK-HEP-1) and the non-small-cell lung cancer (NSCLC) cell line A549 were obtained from ATCC (Manassas, VA, United States). Normal human cell lines (liver cell line LO2 and lung cell line BEAS-2B) were obtained from ATCC (Manassas, VA, United States). Cells were cultured in RMPI-1640 or DMEM medium (Biological Industries, Kibbutz Beit-Haemek, Israel) supplemented with 10% (v/v) fetal bovine serum (Biological Industries) at 37°C in a humidified atmosphere with 5% (v/v) CO2.
as §2, §3

BEAS-2B = test: MTS cell viability assay, normal lung cell BEAS-2B; conditions: read-out: IC50 (±SD) BEAS-2B
Method: as §4, §2, §3

A549 cells [4] = test: Cell cycle analysis (PI staining, flow cytometry), A549; conditions: A549, 24 h; saponins 1 and 5 at 0.5 μM, other four at 1 μM
Method: (§5) Cell cycle distribution was determined by propidium iodide (PI, BD, Pharmingen) staining ([Kong et al., 2016]; [Wei et al., 2021]). Briefly, three cancer cell lines were cultured in six-well plates at a density of 3 × 10^5 cells per well for 24 h before treatment with each of the six isolated saponins at the indicated concentrations for 24 h. The cells were collected, centrifuged, and washed twice with ice-cold PBS. Cells were fixed in 70% (v/v) ice-cold ethanol at 4°C overnight and washed again in PBS twice. The cells were incubated with 100 μL RNase A at 37°C for 30 min in the dark, after which 400 μL PI was added to the cells with RNase A in the dark at 4°C for 15 min. The cell cycle stage was analyzed by flow cytometry (BD, FACSCelesta, United States) with FLOWJO software (FlowJo, Ashland, OR, United States).

SMMC-7721 cells [5] = test: Cell cycle analysis (PI staining, flow cytometry), SMMC-7721; conditions: SMMC-7721, 24 h, 1 μM
Method: as §5

HepG2 cells [6] = test: Cell cycle analysis (PI staining, flow cytometry), HepG2; conditions: HepG2, 24 h, 1 μM
Method: as §5

SMMC-7721 cells [7] = test: Apoptosis by annexin V-FITC/PI staining, SMMC-7721; conditions: SMMC-7721, saponins 5 μM, Figure 7
Method: (§6) Double staining with annexin V-fluorescein isothiocyanate (FITC) and PI was used to determine the effects of the six saponins on cell apoptosis by flow cytometry ([Homburg et al., 1995]; [Vermes et al., 1995]; [Casciola-Rosen et al., 1996]). The effects of the six isolated saponins on apoptosis were determined using an annexin V-FITC apoptosis kit (BD, Pharmingen); the chemotherapy drug doxorubicin (DOX, Beyotime Institute of Biotechnology, Shanghai, China) was used as the positive control. Cells were cultured in six-well plates at a density of 3 × 10^5 cells per well for 24 h before being treated with each of the six isolated saponins at the indicated concentrations for 24 h. The cells were collected, centrifuged, and washed twice with ice-cold phosphate-buffered saline (PBS). The cells were stained with annexin V-FITC and PI for 15 min in the dark at room temperature before analysis by flow cytometry (BD, FACSCelesta, America). Annexin V-FITC^+ and PI^+ (Q2) were considered late-stage apoptotic cells, while annexin V-FITC^+ and PI^− (Q3) cells were considered early-stage apoptotic cells. Annexin V-FITC^– and PI^+ (Q1) were necrotic or mechanically damaged cells, and annexin V-FITC^– and PI^− (Q4) cells were healthy living cells.

A549 cells [8] = test: Apoptosis by annexin V-FITC/PI staining, A549; conditions: A549, saponins 5 μM, Figure 7
Method: as §6

HepG2 cells [9] = test: Apoptosis by annexin V-FITC/PI staining, HepG2; conditions: HepG2, saponins 5 μM, Figure 7
Method: as §6

Question: What does the source list for N#CC(C#N)=NNc1cccc(Cl)c1 [CCCP, carbonyl cyanide 3-chlorophenylhydrazone]?
Answer: JC-10 green fluorescence (drop in mitochondrial membrane potential) (A549 cells [1]): strong green fluorescence; JC-10 green fluorescence (drop in mitochondrial membrane potential) (SMMC-7721 cells [2]): strong green fluorescence; JC-10 green fluorescence (drop in mitochondrial membrane potential) (HepG2 cells [3]): strong green fluorescence

Question: How did the IC50 (SMMC-7721; Homo sapiens, SMMC-7721, 48 h) turn out when CC1CCC2(OC1)OC1CC3C4CC=C5CC(OC6OC(CO)C(OC7OC(C)C(OC8OC(C)C(O)C(O)C8O)C(O)C7O)C(O)C6OC6OC(C)C(O)C(O)C6O)CCC5(C)C4CCC3(C)C1C2C [saponin 6, diosgenin-3-O-α-L-rhamnopyranosyl-(1→2)-[α-L-rhamnopyranosyl-(1→4)-α-L-rhamnopyranosyl-(1→4)]-β-D-glucopyranoside] was run?
Answer: 450 ± 10 nM

Question: What about the IC50 (HepG2; Homo sapiens, HepG2, 48 h) of the same compound?
Answer: 2590 ± 30 nM

Question: And the IC50 (SK-HEP-1; Homo sapiens, SK-HEP1, 48 h)?
Answer: 1300 ± 60 nM

Question: What about the IC50 (A549; Homo sapiens, A549, 48 h) of the same compound?
Answer: 240 ± 10 nM

Question: And the IC50 (LO2; Homo sapiens, L02, read-out: IC50 (±SD) LO2)?
Answer: 370 ± 10 nM

Question: What about the IC50 (BEAS-2B; Homo sapiens, BEAS-2B) of the same compound?
Answer: 730 ± 30 nM

Question: And the “cell cycle phase with increased proportion of cells compared to DMSO control” value (A549 cells [4])?
Answer: G2/M phase

Question: What about the “cell cycle phase with increased proportion of cells compared to DMSO control” value (SMMC-7721 cells [5]) of the same compound?
Answer: cell cycle arrest at the G2/M phase

Question: What about the “increase of proportion of cells in the G2/M phase compared to DMSO control” value (SMMC-7721 cells [5]) of the same compound?
Answer: 27.10%

Question: What about the “increase of proportion of cells in the G2/M phase compared to DMSO control” value (HepG2 cells [6]) of the same compound?
Answer: 25.8%

Question: And the “apoptosis rate (induction of apoptosis, in words)” value (shortened to “apoptosis rate”) (SMMC-7721 cells [7])?
Answer: substantial induction of apoptosis

Question: With “pennogenin-3-O-α-L-rhamnopyranosyl-(1→2)-[α-L-rhamnopyranosyl-(1→4)]-β-D-glucopyranoside [saponin 1]” as the compound, how does the IC50 (SMMC-7721; liver cancer cell line SMMC-7721, MTS, 48 h) read?
Answer: 760 ± 30 nM

Question: What about the IC50 (HepG2; liver cancer cell line HepG2, MTS, 48 h) of the same compound?
Answer: 1780 ± 10 nM

Question: What about the IC50 (SK-HEP-1; liver cancer cell line SK-HEP-1, MTS, 48 h) of the same compound?
Answer: 900 ± 40 nM

Question: What about the IC50 (A549; NSCLC cell line A549, MTS, 48 h) of the same compound?
Answer: 980 ± 10 nM

Question: What about the IC50 (LO2; normal liver cell LO2, MTS, read-out: IC50 (±SD) LO2) of the same compound?
Answer: 1790 ± 100 nM

Question: And the IC50 (BEAS-2B; normal lung cell BEAS-2B, MTS)?
Answer: 1190 ± 10 nM

Question: What about the “cell cycle phase with increased proportion of cells compared to DMSO control” value (A549 cells [4]) of the same compound?
Answer: G2/M phase

Question: And the “increase of proportion of cells in S phase compared to DMSO control” value (HepG2 cells [6])?
Answer: 23.7%

Question: What about the “apoptosis rate” value (A549 cells [8]) of the same compound?
Answer: stronger apoptosis than the positive control DOX

Question: What about the “apoptosis rate” value (A549 cells [8]; listed as Saponin 1) of the same compound?
Answer: most effective in inducing apoptosis

Question: And the “apoptosis rate” value (SMMC-7721 cells [7])?
Answer: stronger apoptosis than the positive control DOX

Question: And the “apoptosis rate” value (SMMC-7721 cells [7]; listed as Saponin 1)?
Answer: most effective in inducing apoptosis

Question: And the “apoptosis rate” value (HepG2 cells [9])?
Answer: next and stronger apoptosis than the positive control DOX

Question: And the “apoptosis rate” value (HepG2 cells [9]; listed as Saponin 1)?
Answer: also effective
